The results in this text go back to ChEMBL document CHEMBL1132675, “New pyrrole derivatives as antimycobacterial agents analogs of BM212” (1999).

Converted amounts (≈) assume the structure as drawn. The source made the active and inactive calls. The rule behind the calls is not given here.

The test system of one test is Mycobacterium marinum. In words: In vitro antibacterial activity against Mycobacterium marinum 6423. The test is classed as functional.
Test [1] has as its system Mycobacterium gordonae. In words: In vitro antibacterial activity against Mycobacterium gordonae 6427. The test is classed as functional.
The test system of a further test is Vero. In words: In vitro cytotoxicity against vero cells. The test is classed as functional, Chlorocebus sabaeus.
The test system of another test is Candida. In words: Compound was tested for activity against Candida sp; Inactive. The test is classed as functional, organism-based.
Test [2] relates to Mycobacterium tuberculosis. In words: In vitro antibacterial activity against Mycobacterium tuberculosis 103471. The test is classed as functional.
The next test relates to Mycobacterium avium. In words: In vitro antibacterial activity against Mycobacterium avium 103317. The test is classed as functional.
Test [3] concerns Mycolicibacterium smegmatis. In words: In vitro antibacterial activity against Mycobacterium smegmatis 103599. The test is classed as functional.
The subject of another test is Candida albicans. In words: Compound was tested for activity against Candida albicans; Inactive. The test is classed as functional, organism-based.
Test [4] relates to Mycobacterium gordonae. In words: In vitro antibacterial activity agains Mycobacterium gordonae 6427. The test is classed as functional.

For orientation: MIC means the least concentration at which growth counts as inhibited.

Consider `Cc1c(CN2CCN(C)CC2)cc(-c2ccc(Cl)cc2)n1-c1ccccc1`, for which the minimum inhibitory concentration (MIC) in the test on Mycobacterium marinum worked out at 16 µg/mL (≈ 42.1 µM); in the test on Mycobacterium gordonae [1], 16 µg/mL (≈ 42.1 µM); in [2], 4 µg/mL (≈ 10.5 µM); with Mycobacterium avium, 16 µg/mL (≈ 42.1 µM); in [3], 8 µg/mL (≈ 21.1 µM). Also, in the test on Vero, the MTD50 was found to be 4 µg/mL. The MIC result in the test with Candida and in the test with Candida albicans was “inactive” each time.
As to `Cc1c(CN2CCSCC2)cc(-c2ccc(Cl)cc2)n1-c1ccccc1`, the MIC against Mycobacterium marinum is greater than 16 µg/mL; in the test on Mycobacterium gordonae [1], greater than 16 µg/mL; in test [2] it was 2 µg/mL (≈ 5.22 µM); against Mycobacterium avium it was greater than 16 µg/mL; in test [3] it was greater than 16 µg/mL. The compound further had an MTD50 in the test on Vero of 4 µg/mL. Besides, the MIC result in the test on Candida and with Candida albicans was “inactive” in each case.
Take `CO[C@H]1/C=C/O[C@@]2(C)Oc3c(C)c(O)c4c(O)c(c(/C=N/N5CCN(C)CC5)c(O)c4c3C2=O)NC(=O)/C(C)=C\C=C\[C@H](C)[C@H](O)[C@@H](C)[C@@H](O)[C@@H](C)[C@H](OC(C)=O)[C@@H]1C` [RIFAMPIN]: the minimal inhibitory concentration (MIC) with Mycobacterium marinum is 0.6 µg/mL (≈ 0.729 µM); against Mycobacterium gordonae [1] it was 0.6 µg/mL (≈ 0.729 µM); in test [2], 0.3 µg/mL (≈ 0.365 µM); in the test on Mycobacterium avium, 0.3 µg/mL (≈ 0.365 µM); in [3], 32 µg/mL (≈ 38.9 µM). In the test with Vero, this compound returned an MTD50 of 64 µg/mL.
In the case of `Cc1c(CN2CCN(C)CC2)cc(-c2ccc(Cl)cc2)n1-c1ccc(Cl)cc1`, the minimum inhibitory concentration (MIC) in the test on Mycobacterium marinum was 100 µg/mL (≈ 241 µM); in the test with Mycobacterium gordonae [4], greater than 100 µg/mL; in [2], 0.7 µg/mL (≈ 1.69 µM); in the test with Mycobacterium avium, 0.4 µg/mL (≈ 0.965 µM); in [3] it was 25 µg/mL (≈ 60.3 µM). This compound also yielded an MTD50 in the test with Vero of 4 µg/mL.
`Cc1c(CN2CCSCC2)cc(-c2ccc(Cl)cc2)n1-c1ccc(Cl)cc1`: the minimal inhibitory concentration (MIC) against Mycobacterium marinum was greater than 16 µg/mL; against Mycobacterium gordonae [1], greater than 16 µg/mL; in test [2], 4 µg/mL (≈ 9.58 µM); against Mycobacterium avium, greater than 16 µg/mL; in test [3] it was greater than 16 µg/mL. Also, the MTD50 with Vero came out at 32 µg/mL. Moreover, the MIC entry with Candida and in the test on Candida albicans was “inactive” each time.
In the case of `NNC(=O)c1ccncc1` [ISONIAZID], the minimum inhibitory concentration (MIC) in the test on Mycobacterium marinum was determined as 16 µg/mL (≈ 117 µM); against Mycobacterium gordonae [1], 32 µg/mL (≈ 233 µM); in test [2] it was 0.25 µg/mL (≈ 1.82 µM); with Mycobacterium avium, 32 µg/mL (≈ 233 µM); in test [3], 64 µg/mL (≈ 467 µM). In the test with Vero, this compound returned an MTD50 of 32 µg/mL.
With `Cc1c(CN2CCN(C)CC2)cc(-c2ccccc2)n1-c1ccc(Cl)cc1`, the MIC in the test on Mycobacterium marinum stood at 1 µg/mL (≈ 2.63 µM); against Mycobacterium gordonae [1], 8 µg/mL (≈ 21.1 µM); in [2], 4 µg/mL (≈ 10.5 µM); with Mycobacterium avium, 16 µg/mL (≈ 42.1 µM); in test [3] it was 8 µg/mL (≈ 21.1 µM). For the same compound, the MTD50 in the test on Vero came to 4 µg/mL. For the same compound, the MIC result with Candida and with Candida albicans was “inactive” each time.
As to `CN[C@@H]1[C@H](O[C@H]2[C@H](O[C@H]3[C@H](O)[C@@H](O)[C@H](N=C(N)N)[C@@H](O)[C@@H]3N=C(N)N)O[C@@H](C)[C@]2(O)C=O)O[C@@H](CO)[C@H](O)[C@H]1O` [STREPTOMYCIN], the MIC against Mycobacterium marinum amounted to 32 µg/mL (≈ 55 µM); in the test with Mycobacterium gordonae [1], 16 µg/mL (≈ 27.5 µM); in test [2], 0.5 µg/mL (≈ 0.86 µM); against Mycobacterium avium it was 8 µg/mL (≈ 13.8 µM); in test [3] it was 8 µg/mL (≈ 13.8 µM). In the test on Vero, the MTD50 was greater than 64 µg/mL.
As to `Cc1c(CN2CCSCC2)cc(-c2ccccc2)n1-c1ccc(Cl)cc1`, the minimum inhibitory concentration (MIC) is 8 µg/mL (≈ 20.9 µM) in the test on Mycobacterium marinum; greater than 16 µg/mL in the test on Mycobacterium gordonae [1]; 2 µg/mL (≈ 5.22 µM) in test [2]; 16 µg/mL (≈ 41.8 µM) against Mycobacterium avium; 16 µg/mL (≈ 41.8 µM) in test [3]. The MTD50 with Vero was 8 µg/mL. In addition, the MIC entry in the test on Candida and with Candida albicans was “inactive” in each case.
